Data published in patent US4575550A, “Platinum complexes” (Shionogi & Co., Ltd., priority 1981, dated 1986).

Legend:
kidney = assay: Nephro-toxicity (Experiment 3, once intraperitoneally); type: in vivo, male Sprague Dawley rats; design: key: .uparw.: increase; slight increase; .dwnarw.: decrease; ±: no change; details: once i.p., (A) 10 mg/kg, (B) 5 mg/kg, solvent 1: 5% glucose
Excerpt: Seven weeks-old male Sprague Dawley rats are separately accommodated in metabolic cages of stainless steel, and solid feed (Clea Japan, INC., CA-1 for breeding) and water are given so that they can take them freely. They are adapted for 3 days and then the test compounds are once administered to rats intraperitoneally at 10:00 a.m. […] The urine excreted during a period of 10 a.m. on the day of administration to 10 a.m. on the next day is defined as urine of the first day; on the urine of the 0-4th days the volume of urine excreted, creatinine, osmotic pressure, urinary enzyme N-acetyl-β-D-glucosaminidase (NAG), and lysozyme (LEZ) are measured, and further urinary protein and urinary sugar are examined with Labstix®. In the morning on the 5th day the rats are anatomized under anesthesia with Ouropan-Soda®(Shionogi & Co., Ltd.; Hexobarbital sodium), and the blood and pathologic specimens of the kidney and the liver are collected in order to determine the level of plasma urea nitrogen and creatinine, and osmotic pressure.

Sarcoma 180 tumor cells [1] = assay: Antitumor activity against Sarcoma-180 (Experiment 4, intravenous for 5 days); type: in vivo, DS mice; details: i.v., 5% glucose solution; for ED50: 14400 min
Experimental: (§1) Sarcoma 180 tumor cells (5×10^6 cells) are inoculated to DS mice (6 to 8 mice are employed in each test group) subcutaneously, and a predetermined amount of the test compounds is administered intraperitoneally for 5 days continuously from the next day of the inoculation.
The test was carried out in the same manner as in Experiment 1, wherein the test compounds were administered intravenously for 5 days.
The evaluation was made in the same manner as in Experiment 1.

[2] = tested on: Leukemia L1210 ascites cells; assay: Antitumor activity against L1210 (Experiment 2, intraperitoneal); type: in vivo, BDF1 mice; details: i.p.
Experimental: Leukemia L1210 ascites cells (10^5 cells) in mice are intraperitoneally inoculated to BDF1 mice (4 to 10 mice are employed in each test group), and on the next day a predetermined amount of the test compounds is administered intraperitoneally. The solvent for injection consists of 0.9% NaCl, 0.4% Polysorbate 80, 0.5% CMC, and 0.5% benzyl alcohol suspension.
From the average survival days (a) in the test group and those (b) of the untreated control group, the increase of lifespan (ILS) is calculated according to the following expression. [formula]

Sarcoma 180 tumor cells [3] = assay: Antitumor activity against Sarcoma-180 (Experiment 1, intraperitoneal for 5 days); type: in vivo, DS mice; details: i.p.; for ED50 (effective dose which inhibits the growth of tumors by 50%): 14400 min
Experimental: as §1

[4] = dose 2 × 1 (dose unit not given)
[5] = dose 5 × 1 (dose unit not given)
[6] = dose 10 × 1 (dose unit not given)
[7] = dose 20 × 1 (dose unit not given)
[8] = 0.9% NaCl, 0.4% Polysorbate 80, 0.5% CMC, 0.5% benzyl alcohol suspension

Compound	CI (curative index) (Sarcoma 180 tumor cells [1])	LD50 (Sarcoma 180 tumor cells [1])	ED50 (Sarcoma 180 tumor cells [1])	increase of lifespan (ILS) [2, 4]	increase of lifespan (ILS) [2, 5]	increase of lifespan (ILS) [2, 6]	increase of lifespan (ILS) [2, 7]	ED50 (effective dose which inhibits the growth of tumors by 50%) (Sarcoma 180 tumor cells [3]; [8])	ED50 (effective dose which inhibits the growth of tumors by 50%) (Sarcoma 180 tumor cells [3]; solvent 5% glucose solution)	also measured
Glucuronato-cis-diammineplatinum(II) [(A)]	2.9	186 mg/kg	63.4 mg/kg	4%	12%	14%	> 55%	34 mg/kg	33.4 mg/kg	Body Weight (g) (kidney): ±; Creatinine Clearance (kidney): ±; Excrement of Creatinine (mg/24 hrs./100 g BW) (kidney): ±; Excrement of Solute (mOsm/24 hrs./100 g BW) (kidney): ±; Kidney Weight (kidney): ±; LEZ (urinary lysozyme) (kidney): ±; Liver Weight (kidney): ±; Osmotic Pressure of Urine (mOsm/kg) (kidney): ±; Urinary Glucose (kidney): ±; Urinary Protein (kidney): ±; Volume of Urine (ml/24 hrs.) (kidney): ±; Plasma Creatinine (kidney; 5th day): ±; Plasma Osmotic Pressure (kidney; 5th day): ±; Plasma Urea Nitrogen (kidney; 5th day): ±; CI (curative index) (Sarcoma 180 tumor cells [3]; [8]): 3.3; LD50 (50% lethal dose) (Sarcoma 180 tumor cells [3]; [8]): 113.5 mg/kg; CI (curative index) (Sarcoma 180 tumor cells [3]; solvent 5% glucose solution): 2.8; LD50 (50% lethal dose) (Sarcoma 180 tumor cells [3]; solvent 5% glucose solution): 93.4 mg/kg
N.N.[Cl][Pt][Cl] [(B), Cisplatin, reference compound]			4.5 mg/kg	11%	29%	> 84%	-26%	7.3 mg/kg	5.8 mg/kg	
Glycerato-cis-diammineplatinum(II)	4.2	186.6 mg/kg	44 mg/kg							
N.N.O=C1C[O][Pt][O]1 [C, Glycolato-cis-diammineplatinum(II)]			18.7 mg/kg							
N.N.O=C1COCC(=O)[O][Pt][O]1 [D, Diglycolato-cis-diammineplatinum(II)]	3.3	80.0 mg/kg	24.1 mg/kg							
